Activity calls are given as the source filed them.
Experiments:
[1] = Intein inhibitors as potential Tuberculosis drugs, a cytotoxicity screen. [Related pubchem assays (depositor defined):AID2221, AID2223, AID434968, AID435010, AID449749, AID449750, AID489010]; format: functional
[2] = biological target: T1, Replicative DNA helicase DnaB (Mycobacterium tuberculosis, UniProt P9WMR3); assay: DnaB intein splicing inhibitors, dose response, biochemical, cell-free fluorescence (AID 449749); format: functional
T1 sequence (P9WMR3 whole entry): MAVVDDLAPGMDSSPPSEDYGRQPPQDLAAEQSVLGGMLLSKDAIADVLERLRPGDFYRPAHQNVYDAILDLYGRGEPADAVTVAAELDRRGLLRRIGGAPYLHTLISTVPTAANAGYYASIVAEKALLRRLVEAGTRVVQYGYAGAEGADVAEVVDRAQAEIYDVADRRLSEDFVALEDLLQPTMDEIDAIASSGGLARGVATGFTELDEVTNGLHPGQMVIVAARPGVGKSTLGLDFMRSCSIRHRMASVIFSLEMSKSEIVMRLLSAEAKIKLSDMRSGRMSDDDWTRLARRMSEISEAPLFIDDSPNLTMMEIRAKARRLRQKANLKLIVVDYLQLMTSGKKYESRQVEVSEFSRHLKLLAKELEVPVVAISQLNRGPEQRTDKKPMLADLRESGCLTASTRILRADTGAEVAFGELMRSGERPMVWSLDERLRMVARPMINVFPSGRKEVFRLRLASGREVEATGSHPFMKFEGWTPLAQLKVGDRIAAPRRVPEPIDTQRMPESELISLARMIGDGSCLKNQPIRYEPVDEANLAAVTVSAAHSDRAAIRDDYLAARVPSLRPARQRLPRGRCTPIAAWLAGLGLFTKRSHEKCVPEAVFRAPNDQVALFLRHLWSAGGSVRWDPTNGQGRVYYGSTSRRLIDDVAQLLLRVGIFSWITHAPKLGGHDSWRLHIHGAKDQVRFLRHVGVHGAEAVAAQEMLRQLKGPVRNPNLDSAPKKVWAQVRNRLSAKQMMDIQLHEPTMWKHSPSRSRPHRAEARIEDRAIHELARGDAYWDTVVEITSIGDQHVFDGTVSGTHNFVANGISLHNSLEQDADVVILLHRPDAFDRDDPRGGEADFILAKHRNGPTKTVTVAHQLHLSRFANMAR

[3] = inhibitors of intracellular T. cruzi replication, confirmation, NIH3T3 host cells, beta-gal luminescence (AID 2044); format: functional, cell-based;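 also: intracellular parasites grown in NIH/3T3 mouse fibroblasts as host cells; luminescent beta-galactosidase reporter signal from transgenic T. cruzi replicating inside host cells; inhibitors lower the luminescence signal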
Protein RecA = biological target: T2, Protein RecA (Mycobacterium tuberculosis, UniProt P9WHJ3); assay: Fluorescence Cell-Free Homogeneous Dose Retest to Identify Inhibitors of RecA-Intein Splicing Activity. [Related pubchem assays (depositor defined):AID2097, AID2223, AID489010, AID492950]; format: functional
T2 sequence (P9WHJ3 whole entry): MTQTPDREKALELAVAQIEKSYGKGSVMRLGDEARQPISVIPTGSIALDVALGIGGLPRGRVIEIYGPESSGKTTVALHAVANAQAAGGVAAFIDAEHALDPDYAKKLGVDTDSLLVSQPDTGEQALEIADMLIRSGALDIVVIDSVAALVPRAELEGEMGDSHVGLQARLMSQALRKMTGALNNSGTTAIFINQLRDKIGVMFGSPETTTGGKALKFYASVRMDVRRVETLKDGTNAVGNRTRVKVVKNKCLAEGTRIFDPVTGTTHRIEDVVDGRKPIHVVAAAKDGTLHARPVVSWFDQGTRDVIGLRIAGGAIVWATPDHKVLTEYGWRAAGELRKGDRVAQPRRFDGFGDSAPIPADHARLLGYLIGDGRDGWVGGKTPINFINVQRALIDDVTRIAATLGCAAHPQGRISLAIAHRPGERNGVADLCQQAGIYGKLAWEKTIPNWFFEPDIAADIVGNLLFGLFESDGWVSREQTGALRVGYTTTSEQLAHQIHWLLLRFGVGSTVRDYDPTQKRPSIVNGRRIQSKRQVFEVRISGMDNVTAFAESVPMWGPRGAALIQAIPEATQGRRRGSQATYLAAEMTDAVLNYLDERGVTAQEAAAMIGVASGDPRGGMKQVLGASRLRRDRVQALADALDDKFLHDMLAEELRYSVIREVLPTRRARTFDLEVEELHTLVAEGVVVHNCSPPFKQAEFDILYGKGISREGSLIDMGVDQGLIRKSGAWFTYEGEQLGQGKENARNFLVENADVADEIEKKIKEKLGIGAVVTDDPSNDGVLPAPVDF

INS1 = assay: beta cell apoptosis inhibitors, cytokine rescue, dose response, luminescence, retest (AID 449756); format: functional, cell-based; conditions: Rattus norvegicus;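 also: cell death triggered by IL-1 beta plus TNF-alpha plus IFN-gamma mixture; protective hits raise ATP signal compared with cytokine alone wells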
[4] = cytotoxicity toward NIH3T3 fibroblasts, dose response, counter-screen, cell-based, ATP luminescence, mouse fibroblasts (AID 2010); format: functional;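 also: cells exposed to compound for about 90 hours before reading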
[5] = biological target: G-protein coupled receptor 55 (Homo sapiens, UniProt Q9Y2T6); assay: GPR55 antagonists blocking LPI-driven arrestin recruitment, primary screen, imaging, U2OS, beta-arrestin-GFP, LPI agonist (AID 2013); format: functional;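 also: antagonist potency measured as reduced agonist-driven arrestin aggregation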
Genome polyprotein = Genome polyprotein (dengue virus type 2, UniProt P29990); assay: Dengue-2 NS5 methyltransferase inhibitors, primary screen, biochemical, confirmation dose response (AID 588689); format: functional
Caspase-6 = biological target: T3, Caspase-6 (Homo sapiens, UniProt P55212); assay: human caspase-6 inhibitors, dose response, biochemical, VEID-R110 fluorescence, cherry-pick (AID 720632)
T3 sequence (P55212 whole entry): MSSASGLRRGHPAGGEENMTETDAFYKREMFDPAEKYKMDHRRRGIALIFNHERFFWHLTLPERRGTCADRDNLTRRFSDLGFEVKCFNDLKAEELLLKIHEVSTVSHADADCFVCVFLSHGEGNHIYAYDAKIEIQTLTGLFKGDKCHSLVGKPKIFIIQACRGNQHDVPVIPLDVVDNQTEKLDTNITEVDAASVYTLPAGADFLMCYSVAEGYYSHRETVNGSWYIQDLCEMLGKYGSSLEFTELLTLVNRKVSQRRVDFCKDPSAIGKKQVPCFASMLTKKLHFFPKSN

Leucine aminopeptidase = biological target: T4, Leucine aminopeptidase (Plasmodium falciparum 3D7, UniProt Q8IL11); assay: P. falciparum M17LAP inhibitors, primary screen, biochemical, fluorogenic H-Leu-NHMec substrate, 1536-well (AID 1619); format: functional
T4 sequence (Q8IL11 whole entry): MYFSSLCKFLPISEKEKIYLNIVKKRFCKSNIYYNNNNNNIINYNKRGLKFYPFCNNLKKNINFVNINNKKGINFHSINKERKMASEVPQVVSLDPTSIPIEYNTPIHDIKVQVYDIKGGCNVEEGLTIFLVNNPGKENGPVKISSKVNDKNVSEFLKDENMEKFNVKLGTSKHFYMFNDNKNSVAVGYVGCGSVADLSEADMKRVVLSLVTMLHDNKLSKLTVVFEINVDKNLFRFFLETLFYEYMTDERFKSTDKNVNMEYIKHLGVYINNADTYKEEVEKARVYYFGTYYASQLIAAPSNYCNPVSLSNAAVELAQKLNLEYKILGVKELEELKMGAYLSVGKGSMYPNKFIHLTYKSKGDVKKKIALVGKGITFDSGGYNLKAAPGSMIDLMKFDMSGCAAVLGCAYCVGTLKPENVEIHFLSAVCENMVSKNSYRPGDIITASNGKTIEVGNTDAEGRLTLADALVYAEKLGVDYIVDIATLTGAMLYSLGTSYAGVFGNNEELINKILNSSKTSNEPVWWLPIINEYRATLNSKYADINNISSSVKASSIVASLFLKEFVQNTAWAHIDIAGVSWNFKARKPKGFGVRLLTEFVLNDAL

Fatty acid synthase [6] = biological target: T5, Fatty acid synthase (Homo sapiens, UniProt P49327); assay: FAS thioesterase domain inhibitors, dose response, biochemical, kinetic fluorescence intensity (AID 624326); format: functional;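 also: rate of fluorescence rise from hydrolysis of a fluorogenic O-methyl fluorescein ester substrate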
Fatty acid synthase [7] = biological target: T5, Fatty acid synthase; assay: FAS thioesterase domain inhibitors, dose response, biochemical, endpoint fluorescence intensity, uHTS hits (AID 624327); format: functional;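 also: fluorescence from hydrolysis of an O-methyl fluorescein acyl ester substrate by the enzyme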
[8] = biological target: Induced myeloid leukemia cell differentiation protein Mcl-1 (Homo sapiens, UniProt Q07820); format: functional
SUMO-activating enzyme [9] = biological target: T6, SUMO-activating enzyme (Homo sapiens, UniProt Q9UBT2); assay: SUMOylation inhibitor hit validation, confirmation, SUMOylation inhibitor project, biochemical, AlphaScreen (AID 2018); format: functional
Large T antigen = Large T antigen (Simian virus 40, UniProt P03070); format: functional, Betapolyomavirus macacae;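 also: Confirmatory-stage PubChem screen for compounds that inhibit SV40 T antigen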
[10] = biological target: FAD-linked sulfhydryl oxidase ALR (Homo sapiens, UniProt P55789); assay: inhibitors of human ALR sulfhydryl oxidase, dose response, biochemical, H2O2 detection, luminescence, cherry-pick (AID 493248)
SUMO-activating enzyme [11] = biological target: T6, SUMO-activating enzyme; assay: inhibitors of in vitro SUMOylation cascade, primary screen, biochemical, HTRF, uHTS (AID 2006); format: protein-complex assay
[12] = biological target: DNA dC->dU-editing enzyme APOBEC-3G (Homo sapiens, UniProt Q9HC16); format: functional;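 also: Dose-response counterscreen measuring inhibition of APOBEC3G DNA deaminase activity, run while confirming APOBEC3A inhibitors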
[13] = biological target: DNA dC->dU-editing enzyme APOBEC-3A (Homo sapiens, UniProt P31941); assay: Dose Response confirmation of small molecule APOBEC3A DNA Deaminase Inhibitors via a fluorescence-based single-stranded DNA deaminase assay. [Related pubchem assays (depositor defined):AID493011, AID493024]; format: functional
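For CC50 in this document: cells exposed to compound for 72 hours before luminescence readout.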

T5 sequence (P49327 whole entry, the tested form may be a part): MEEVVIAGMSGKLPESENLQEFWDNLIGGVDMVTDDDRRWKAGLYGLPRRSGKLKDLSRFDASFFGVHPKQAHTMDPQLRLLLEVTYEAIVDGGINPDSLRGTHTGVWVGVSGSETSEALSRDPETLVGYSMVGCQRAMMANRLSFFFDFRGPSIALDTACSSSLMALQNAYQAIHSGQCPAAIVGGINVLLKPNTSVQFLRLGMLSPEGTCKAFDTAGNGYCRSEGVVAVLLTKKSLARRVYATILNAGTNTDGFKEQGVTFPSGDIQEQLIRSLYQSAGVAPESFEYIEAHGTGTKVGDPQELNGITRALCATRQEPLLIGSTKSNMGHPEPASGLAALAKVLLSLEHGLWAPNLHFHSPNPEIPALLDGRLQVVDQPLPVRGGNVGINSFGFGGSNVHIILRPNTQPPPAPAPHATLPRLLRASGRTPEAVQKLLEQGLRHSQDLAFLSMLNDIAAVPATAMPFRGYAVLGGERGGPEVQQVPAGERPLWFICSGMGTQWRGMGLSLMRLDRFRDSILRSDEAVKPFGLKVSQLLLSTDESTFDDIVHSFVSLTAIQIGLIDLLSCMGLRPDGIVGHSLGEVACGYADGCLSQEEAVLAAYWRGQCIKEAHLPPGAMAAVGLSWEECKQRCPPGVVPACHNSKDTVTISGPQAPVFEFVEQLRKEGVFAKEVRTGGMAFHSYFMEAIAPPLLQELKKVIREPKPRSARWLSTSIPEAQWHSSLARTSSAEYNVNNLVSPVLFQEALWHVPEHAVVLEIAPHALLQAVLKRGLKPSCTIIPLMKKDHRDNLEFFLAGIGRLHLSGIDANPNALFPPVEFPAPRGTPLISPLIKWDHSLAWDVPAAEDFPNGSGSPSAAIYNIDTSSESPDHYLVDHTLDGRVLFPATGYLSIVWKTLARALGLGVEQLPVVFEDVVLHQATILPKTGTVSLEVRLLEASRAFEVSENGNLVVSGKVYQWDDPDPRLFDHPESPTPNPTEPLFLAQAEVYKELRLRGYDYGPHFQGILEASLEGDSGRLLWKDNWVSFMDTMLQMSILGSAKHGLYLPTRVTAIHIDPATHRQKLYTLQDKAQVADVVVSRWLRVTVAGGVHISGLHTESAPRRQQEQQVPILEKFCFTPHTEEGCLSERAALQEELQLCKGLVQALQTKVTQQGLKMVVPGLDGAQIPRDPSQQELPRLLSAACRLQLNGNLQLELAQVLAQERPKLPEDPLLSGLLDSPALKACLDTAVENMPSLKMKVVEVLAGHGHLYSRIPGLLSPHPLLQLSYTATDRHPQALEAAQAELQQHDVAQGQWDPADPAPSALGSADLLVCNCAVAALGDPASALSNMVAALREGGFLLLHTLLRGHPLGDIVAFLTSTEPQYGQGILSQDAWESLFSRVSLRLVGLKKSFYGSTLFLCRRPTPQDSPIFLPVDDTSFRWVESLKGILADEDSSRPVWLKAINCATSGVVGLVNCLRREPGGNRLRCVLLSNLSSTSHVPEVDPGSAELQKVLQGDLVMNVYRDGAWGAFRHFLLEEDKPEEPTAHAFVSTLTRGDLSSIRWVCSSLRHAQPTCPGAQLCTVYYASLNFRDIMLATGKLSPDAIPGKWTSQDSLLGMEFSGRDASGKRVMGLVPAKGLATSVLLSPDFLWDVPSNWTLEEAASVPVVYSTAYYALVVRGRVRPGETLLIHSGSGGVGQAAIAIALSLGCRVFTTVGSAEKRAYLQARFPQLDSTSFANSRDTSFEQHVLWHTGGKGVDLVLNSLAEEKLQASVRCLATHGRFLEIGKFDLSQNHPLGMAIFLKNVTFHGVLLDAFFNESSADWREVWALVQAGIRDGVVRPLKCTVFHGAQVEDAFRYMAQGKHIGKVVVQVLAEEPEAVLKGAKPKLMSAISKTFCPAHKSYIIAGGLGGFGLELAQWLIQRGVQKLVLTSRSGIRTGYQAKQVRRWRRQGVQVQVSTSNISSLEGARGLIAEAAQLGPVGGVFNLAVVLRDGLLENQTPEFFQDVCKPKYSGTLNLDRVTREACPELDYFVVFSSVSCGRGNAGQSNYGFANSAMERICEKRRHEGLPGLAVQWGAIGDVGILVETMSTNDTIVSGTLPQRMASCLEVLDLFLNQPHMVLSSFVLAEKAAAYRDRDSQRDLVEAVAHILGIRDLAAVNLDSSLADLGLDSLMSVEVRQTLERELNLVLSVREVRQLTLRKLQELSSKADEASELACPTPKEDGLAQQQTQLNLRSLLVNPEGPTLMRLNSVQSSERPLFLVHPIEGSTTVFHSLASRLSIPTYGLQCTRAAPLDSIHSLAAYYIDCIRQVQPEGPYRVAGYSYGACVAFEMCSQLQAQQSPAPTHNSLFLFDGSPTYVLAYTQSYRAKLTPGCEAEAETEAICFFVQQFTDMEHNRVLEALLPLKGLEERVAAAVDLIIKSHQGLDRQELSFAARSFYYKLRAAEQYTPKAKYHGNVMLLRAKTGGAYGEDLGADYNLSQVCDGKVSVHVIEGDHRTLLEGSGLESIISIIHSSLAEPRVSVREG
G-protein coupled receptor 55, sequence (Q9Y2T6 whole entry): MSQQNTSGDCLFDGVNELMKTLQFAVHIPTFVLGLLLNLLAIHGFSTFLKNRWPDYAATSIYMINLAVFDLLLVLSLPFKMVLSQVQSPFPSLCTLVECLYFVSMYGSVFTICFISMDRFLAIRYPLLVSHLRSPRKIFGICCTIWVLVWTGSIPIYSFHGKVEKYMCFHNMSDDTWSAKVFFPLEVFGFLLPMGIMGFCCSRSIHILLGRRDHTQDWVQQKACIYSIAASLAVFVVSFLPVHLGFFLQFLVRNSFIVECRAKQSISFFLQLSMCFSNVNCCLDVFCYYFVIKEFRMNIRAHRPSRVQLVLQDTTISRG
T6 sequence (Q9UBE0 whole entry): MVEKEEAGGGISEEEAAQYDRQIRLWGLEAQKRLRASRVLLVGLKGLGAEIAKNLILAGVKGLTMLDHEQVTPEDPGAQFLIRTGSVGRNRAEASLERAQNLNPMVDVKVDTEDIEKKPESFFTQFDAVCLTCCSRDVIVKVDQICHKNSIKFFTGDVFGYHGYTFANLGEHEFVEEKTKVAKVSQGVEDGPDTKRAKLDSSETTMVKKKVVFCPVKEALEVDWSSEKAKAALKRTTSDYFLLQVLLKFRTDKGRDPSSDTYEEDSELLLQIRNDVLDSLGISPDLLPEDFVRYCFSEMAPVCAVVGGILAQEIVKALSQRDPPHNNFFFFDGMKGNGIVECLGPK
T6 sequence (Q9UBT2 whole entry): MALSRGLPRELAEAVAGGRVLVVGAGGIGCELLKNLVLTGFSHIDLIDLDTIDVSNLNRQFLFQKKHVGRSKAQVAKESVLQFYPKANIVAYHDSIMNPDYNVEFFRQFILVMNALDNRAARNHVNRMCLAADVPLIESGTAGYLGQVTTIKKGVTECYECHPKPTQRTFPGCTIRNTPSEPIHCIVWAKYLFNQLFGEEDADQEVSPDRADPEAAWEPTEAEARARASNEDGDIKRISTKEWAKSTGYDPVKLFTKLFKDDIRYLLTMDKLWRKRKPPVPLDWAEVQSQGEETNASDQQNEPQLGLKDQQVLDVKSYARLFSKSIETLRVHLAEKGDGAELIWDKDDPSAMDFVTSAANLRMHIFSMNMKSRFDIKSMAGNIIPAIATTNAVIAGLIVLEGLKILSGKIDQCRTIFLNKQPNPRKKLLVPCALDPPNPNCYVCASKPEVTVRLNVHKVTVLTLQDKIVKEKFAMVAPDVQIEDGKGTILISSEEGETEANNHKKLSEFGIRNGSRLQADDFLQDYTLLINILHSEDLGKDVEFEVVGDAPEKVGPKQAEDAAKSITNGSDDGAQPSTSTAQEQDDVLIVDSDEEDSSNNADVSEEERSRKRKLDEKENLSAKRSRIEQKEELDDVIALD
Genome polyprotein, sequence (P29990 2492-3391 limits assumed): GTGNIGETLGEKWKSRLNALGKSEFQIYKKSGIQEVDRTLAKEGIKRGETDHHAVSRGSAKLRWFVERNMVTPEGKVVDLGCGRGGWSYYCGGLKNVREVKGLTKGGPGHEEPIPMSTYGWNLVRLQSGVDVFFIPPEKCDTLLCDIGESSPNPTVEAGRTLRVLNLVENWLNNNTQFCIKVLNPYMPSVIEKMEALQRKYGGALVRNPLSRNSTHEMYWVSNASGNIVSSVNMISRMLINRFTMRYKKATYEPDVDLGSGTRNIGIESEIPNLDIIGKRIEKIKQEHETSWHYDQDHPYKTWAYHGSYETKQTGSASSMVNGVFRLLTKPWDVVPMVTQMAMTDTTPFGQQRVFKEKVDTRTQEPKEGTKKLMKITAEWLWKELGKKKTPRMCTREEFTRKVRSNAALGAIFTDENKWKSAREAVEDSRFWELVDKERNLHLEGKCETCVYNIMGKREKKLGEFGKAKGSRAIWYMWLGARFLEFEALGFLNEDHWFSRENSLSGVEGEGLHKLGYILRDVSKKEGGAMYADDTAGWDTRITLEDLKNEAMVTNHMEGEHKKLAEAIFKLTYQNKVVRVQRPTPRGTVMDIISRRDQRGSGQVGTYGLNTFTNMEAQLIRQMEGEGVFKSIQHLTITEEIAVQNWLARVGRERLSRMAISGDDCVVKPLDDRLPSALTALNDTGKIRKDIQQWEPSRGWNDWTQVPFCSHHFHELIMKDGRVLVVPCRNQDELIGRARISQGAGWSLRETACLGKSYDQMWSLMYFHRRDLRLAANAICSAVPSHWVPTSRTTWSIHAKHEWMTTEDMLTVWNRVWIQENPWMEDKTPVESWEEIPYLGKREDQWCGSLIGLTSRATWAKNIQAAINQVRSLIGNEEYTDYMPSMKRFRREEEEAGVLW
DNA dC->dU-editing enzyme APOBEC-3A, sequence (P31941 whole entry): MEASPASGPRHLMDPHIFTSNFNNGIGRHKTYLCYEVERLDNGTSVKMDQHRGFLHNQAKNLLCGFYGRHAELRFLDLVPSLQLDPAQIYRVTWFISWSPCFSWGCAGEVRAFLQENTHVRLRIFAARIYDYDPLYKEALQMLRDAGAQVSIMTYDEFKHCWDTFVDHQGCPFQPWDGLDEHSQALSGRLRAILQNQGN

For Cc1cccc(Cn2nnc3c2C(=O)c2ccccc2C3=O)c1, the CC50 [1] was 11.7 µM (active), the AC50 [2] was 4.2 µM (active) and the EC50 [3] was 2.58 µM (active). The EC50 (Protein RecA) was 446 nM (active), the AC50 (INS1) was 5.21 µM (active) and the EC50 [4] was > 30 µM (not active).
For COc1ccc(S(=O)(=O)CC(=O)c2cc3cc(Br)ccc3oc2=O)cc1, the IC50 [5] was 2.11 µM (active) and the IC50 (Genome polyprotein) was > 100 µM (active).
For C=CCOc1c(OC)cc(/C=N/Nc2cccc(C(=O)O)c2)c(Br)c1Br, the AC50 (Caspase-6) was 19.2 µM (active), the IC50 (Leucine aminopeptidase) was < 1 µM (active) and the IC50 (Fatty acid synthase [6]) was 3.06 µM (active). For the same compound, the IC50 [5] was 2.92 µM (active), the IC50 (Fatty acid synthase [7]) was 3.82 µM (active) and the IC50 [8] was 5.84 µM (not active).
In the case of Sc1nnc(-c2ccc(Cl)cc2)n1/N=C/C=C/c1ccco1, the IC50 (SUMO-activating enzyme [9]) is reported as 7.66 µM (active), the IC50 (Large T antigen) is reported as 69.2 µM (active) and the AC50 [10] is reported as 1.95 µM (active). The IC50 (SUMO-activating enzyme [11]) was 59.1 µM (active).
For CCn1c(C=CN(C(C)=O)c2ccccc2)[n+](CC)c2cc(Cl)ccc21, the IC50 [12] was 4.45 µM (active) and the IC50 [13] was 2.23 µM (active).

Source: ChEMBL document CHEMBL1201862, “PubChem BioAssay data set” (2004)
